The source of these data is US8415479B2, “Inhibitor of plasminogen activator inhibitor-1” (Renascience Co., Ltd., priority 2008, dated 2013).

In assay [1] the target is T1, PAI-1 (Homo sapiens, UniProt P05121). The assay is described as follows: Measurement of PAI-1 inhibitory activity (t-PA / chromogenic substrate S-2288). To be noted: statement in words referring to the test example (compound at 20 μM or 50 μM); numeric PAI-1 activities (%) only in FIGS. 1 to 7.
Method: The change in PAI-1 activity can be examined by setting, as an index, a reaction product produced by the action of t-PA on a substrate. […] It can be judged that when the amount of reaction product is larger, the PAI-1 inhibitory action is higher.
More specifically, human-derived PAI-1 was added to a 0.1% Tween 80-containing 100 mM Tris-HCl (pH 8) solution containing each of the above compounds in a given concentration (20 μM or 50 μM), and incubated at 37° C. for 15 minutes. Subsequently, human-derived tissue plasminogen activator (t-PA) (manufactured by American Diagnostica, Inc. (USA); the same applies hereinafter) adjusted to 0.3 pmol/μL, was added thereto, and further incubated at 37° C. for 15 minutes.
Assay [2] has as its target T1, PAI-1. The assay can be described thus: Reference Test Example (1) PAI-1 inhibitory activity assay (t-PA / S-2288). The note with it: concentrations of 35 μM and 50 μM; FIG. 8. It counts as biochemical. Further details: purchased Molecular Innovation(s) Inc. (USA). On the procedure:
P-nitranilide removed from the chromogenic substrate (S-2288) by t-PA action was measured using a spectrophotometer at an absorbance of 405 nm at 5-minute intervals for 30 minutes.
Comparative tests were carried out in the same manner using, in place of the above test compounds, a compound (tiplaxtinin) of the formula below used as an antithrombotic drug in US clinical trials (provided that the given concentrations were 20, 35, and 50 μM).
FIGS. 8 (A), (B), and (C) each show PAI-1 activity (%) when the compound a (concentrations: 20, 35, and 50 μM), the compound b (concentrations: 20, 35, and 50 μM), and tiplaxtinin (comparative compound) (concentrations: 20, 35, and 50 μM) are added, respectively.

Assay [3] deals with mouse model with pulmonary fibrosis artificially induced by bleomycin. The assay can be described thus: Reference Test Example (3) effects on bleomycin-induced pulmonary fibrosis. To be noted: scored from 0 to 8 (method of Ashcort et al.); bleomycin + compound b 200 mg/kg p.o. twice/day for 14 days; FIG. 9. In kind it is in vivo, C57BL/6 mouse. On the procedure: A C57BL/6 mouse (male, body weight: 19 to 21 g) was intraperitoneally anesthetized with pentobarbital, and an incision was made on the cervical organ. Ten mice were used as controls. The control mice (n=10) were endotracheally administered bleomycin (produced by Nippon Kayaku Co., Ltd.) (1.5 U/kg) lysed in physiological saline, twice a day for 14 days. On the other hand, the test mice were subjected to forcible oral administration with the compound b (200 mg/kg), suspended in a 0.5% carboxymethyl cellulose aqueous solution, twice a day for 14 days, in addition to the above endotracheal administration. Then, the lung tissues taken from these control mice and the test mice were analyzed, and further assayed for hydroxyproline levels. The hydroxyproline levels in the lung tissues were assayed in terms of the level in the hydrolysate of the lung tissues as described in the method of Kivirikko et al. (Anal. Biochem. 19, 249-255 (1967)). The levels (severity) of pulmonary fibrosis were scored from 0 to 8, based on the method of Ashcort et al. (J. Clin. Pathol. 41, 467-470 (1988)). Further, the control mice and the test mice were assayed for plasma PAI-1 activity (ng/mL).

Assay [4] concerns the target T1, PAI-1. The assay is described as follows: Reference Test Example (2) evaluation of fibrinolytic action (fibrin plate, mixture of PAI-1, t-PA and test compound). It counts as biochemical. Set-up: purchased Molecular Innovations Inc. (USA). To be noted: room temperature, 18 hours. On the procedure: The compounds a and b were evaluated for fibrinolytic action in accordance with the document (Matsuo, O. et al., Haemostasis, 16, 43-50 (1986)).
More specifically, an aqueous solution (containing 25 mM barbital-sodium, 50 mM NaCl, and 25 mM CaCl2) containing a concentration of 1.5 mg/mL of fibrinogen (produced by Organon Teknica) was added, on a 9 cm-plate, to thrombin dissolved in 0.2 mL of physiological saline (10NIH U/mL: produced by Mochida Pharmaceutical Co., Ltd.), and the mixture was allowed to stand at room temperature for 2 hours. Using this mixture, fibrinolysis assay was conducted.
Namely, a mixture of PAI-1, t-PA, and each of the test compounds was dropped onto the plate and incubated at room temperature for 18 hours. After the incubation, fibrinolysis due to plasminogen activation was measured from the lysis area on the plate.

T1 sequence (P05121 24-402): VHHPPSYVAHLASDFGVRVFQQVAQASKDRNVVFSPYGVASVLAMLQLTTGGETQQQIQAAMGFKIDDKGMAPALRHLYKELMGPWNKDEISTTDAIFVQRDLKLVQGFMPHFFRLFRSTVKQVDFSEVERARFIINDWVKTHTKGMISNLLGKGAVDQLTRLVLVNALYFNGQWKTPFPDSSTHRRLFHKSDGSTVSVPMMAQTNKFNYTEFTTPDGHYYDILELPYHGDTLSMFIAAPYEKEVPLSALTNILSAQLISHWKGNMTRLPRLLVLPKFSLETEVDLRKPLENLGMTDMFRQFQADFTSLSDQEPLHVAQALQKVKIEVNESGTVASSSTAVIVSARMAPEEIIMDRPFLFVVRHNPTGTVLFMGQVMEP

For the molecule `O=C(COCC(=O)Nc1ccc(Cl)cc1C(=O)O)Nc1cccc(-c2ccncc2)c1` [Compound 2, 5-chloro-2-([(2-oxo-2-([3-(pyridin-4-yl)phenyl]amino)ethoxy)acetyl]amino)benzoic acid], the “inhibitory action on PAI-1 activity” value in assay [1] is given as “excellent inhibitory action on PAI-1 activity”.
As for `Cc1ccc(-c2ccc(F)cc2)cc1NC(=O)C(=O)Nc1ccc(Cl)cc1C(=O)[O-].[Na+]` [Compound 20, 5-chloro-2-(([(4′-fluoro-4-methylbiphenyl-3-yl)amino](oxo)acetyl)amino)benzoic acid.sodium salt], the “inhibitory action on PAI-1 activity” value in assay [1] is “excellent inhibitory action on PAI-1 activity”.
Regarding `O=C(COCC(=O)Nc1ccc(Cl)cc1C(=O)O)Nc1ccc(-c2ccncc2)cc1` [Compound 1, 5-chloro-2-([(2-oxo-2-([4-(pyridin-4-yl)phenyl]amino)ethoxy)acetyl]amino)benzoic acid], the “inhibitory action on PAI-1 activity” value in assay [1] is on record as “excellent inhibitory action on PAI-1 activity”.
In the case of `O=C(COCC(=O)Nc1ccc(Cl)cc1C(=O)O)Nc1ccc(-c2ccoc2)cc1` [Compound 64, 5-chloro-2-([(2-([4-(furan-3-yl)phenyl]amino)-2-oxoethoxy)acetyl]amino)benzoic acid], in assay [1], the “inhibitory action on PAI-1 activity” value is recorded as “excellent inhibitory action on PAI-1 activity”.
Take `CCC(CC(=O)Nc1scc(-c2cccs2)c1C(=O)O)C(=O)Nc1scc(-c2cccs2)c1C(=O)O` (centres unmarked) [compound b, 2-[3-(3′-carboxy-4′-thienylthiophen-2′-ylcarbamoyl)-pentanoylamino]-4-thienylthiophen-3-carboxylic acid]: in assay [2], the “PAI-1 activity inhibitory action compared with tiplaxtinin” value is “higher PAI-1 activity inhibitory action at concentrations of 35 μM and 50 μM than tiplaxtinin”. For the same molecule, the fibrosis score in assay [3] is reported as 2.9±0.42. In addition, the “fibrinolytic action (lysis area on fibrin plate)” value in assay [4] was “inhibit fibrinolysis suppression caused by PAI-1”.
As for `O=C(COCC(=O)Nc1ccc(Cl)cc1C(=O)O)Nc1cccc(-c2cccs2)c1` [Compound 63, 5-chloro-2-([(2-oxo-2-([3-(thiophen-2-yl)phenyl]amino)ethoxy)acetyl]amino)benzoic acid], the “inhibitory action on PAI-1 activity” value in assay [1] is on record as “excellent inhibitory action on PAI-1 activity”.
Turning to `CC(=O)Nc1ccc(-c2ccc(C)c(NC(=O)COCC(=O)Nc3ccc(Cl)cc3C(=O)O)c2)cc1` [Compound 44, 2-([(2-([4′-(acetylamino)-4-methylbiphenyl-3-yl]amino)-2-oxoethoxy)acetyl]amino)-5-chlorobenzoic acid], the “inhibitory action on PAI-1 activity” value in assay [1] is “excellent inhibitory action on PAI-1 activity”.
Regarding `O=C(COCC(=O)NC1CCCCCCCCCCC1)Nc1ccc(Cl)cc1C(=O)O` [Compound 11, 5-chloro-2-(([2-(cyclododecylamino)-2-oxoethoxy]acetyl)amino)benzoic acid], in assay [1], the “inhibitory action on PAI-1 activity” value is reported as “excellent inhibitory action on PAI-1 activity”.
Take `CCC(CC(=O)Nc1scc(-c2ccccc2)c1C(=O)O)C(=O)Nc1scc(-c2ccccc2)c1C(=O)O` (centres unmarked) [compound a, 2-[3-(3′-carboxy-4′-phenylthiophen-2′-ylcarbamoyl)-pentanoylamino]-4-phenylthiophen-3-carboxylic acid]: the “PAI-1 activity inhibitory action compared with tiplaxtinin” value in assay [2] was “higher PAI-1 activity inhibitory action at concentrations of 35 μM and 50 μM than tiplaxtinin”. For the same molecule, in assay [4], the “fibrinolytic action (lysis area on fibrin plate)” value is “inhibit fibrinolysis suppression caused by PAI-1”.
For the molecule `O=C(COCC(=O)N(c1ccccc1)C1CCCCC1)Nc1ccc(Cl)cc1C(=O)[O-].[Na+]` [Compound 15, 5-chloro-2-[((2-[cyclohexyl(phenyl)amino]-2-oxoethoxy)acetyl)amino]benzoic acid.sodium salt], the “inhibitory action on PAI-1 activity” value in assay [1] is “excellent inhibitory action on PAI-1 activity”.
With `O=C(COCC(=O)Nc1ccc(Cl)cc1C(=O)O)Nc1cccc(Cc2ccoc2)c1` [Compound 55, 5-chloro-2-([(2-([3-(furan-3-ylmethyl)phenyl]amino)-2-oxoethoxy)acetyl]amino)benzoic acid], in assay [1], the “inhibitory action on PAI-1 activity” value is given as “excellent inhibitory action on PAI-1 activity”.
